Reference: US7709516B2, “Helix 12 directed non-steroidal antiandrogens” (Endorecherche, Inc., priority 2005, dated 2010)
Read-outs that look alike come from different tables or passages of the source.

Assays:
[1] = system: rat prostate, seminal vesicle, levator ani muscle; assay: Systemic antiandrogenic activity in orchidectomized immature male rats with DHT implant; type: in vivo; details: Rattus norvegicus, 168 h, rat +DHT, 0.5 mg/animal daily 7 days
Human Androgen Receptor = target: T1, Human Androgen Receptor (Homo sapiens, UniProt P10275); assay: Androgen receptor binding assay ([3H]R1881, HAP) in cytosol of HEK-293 cells transfected with hAR; details: Table 1; relative to R1881 = 100, transfected cells
T1 sequence (P10275 1-920): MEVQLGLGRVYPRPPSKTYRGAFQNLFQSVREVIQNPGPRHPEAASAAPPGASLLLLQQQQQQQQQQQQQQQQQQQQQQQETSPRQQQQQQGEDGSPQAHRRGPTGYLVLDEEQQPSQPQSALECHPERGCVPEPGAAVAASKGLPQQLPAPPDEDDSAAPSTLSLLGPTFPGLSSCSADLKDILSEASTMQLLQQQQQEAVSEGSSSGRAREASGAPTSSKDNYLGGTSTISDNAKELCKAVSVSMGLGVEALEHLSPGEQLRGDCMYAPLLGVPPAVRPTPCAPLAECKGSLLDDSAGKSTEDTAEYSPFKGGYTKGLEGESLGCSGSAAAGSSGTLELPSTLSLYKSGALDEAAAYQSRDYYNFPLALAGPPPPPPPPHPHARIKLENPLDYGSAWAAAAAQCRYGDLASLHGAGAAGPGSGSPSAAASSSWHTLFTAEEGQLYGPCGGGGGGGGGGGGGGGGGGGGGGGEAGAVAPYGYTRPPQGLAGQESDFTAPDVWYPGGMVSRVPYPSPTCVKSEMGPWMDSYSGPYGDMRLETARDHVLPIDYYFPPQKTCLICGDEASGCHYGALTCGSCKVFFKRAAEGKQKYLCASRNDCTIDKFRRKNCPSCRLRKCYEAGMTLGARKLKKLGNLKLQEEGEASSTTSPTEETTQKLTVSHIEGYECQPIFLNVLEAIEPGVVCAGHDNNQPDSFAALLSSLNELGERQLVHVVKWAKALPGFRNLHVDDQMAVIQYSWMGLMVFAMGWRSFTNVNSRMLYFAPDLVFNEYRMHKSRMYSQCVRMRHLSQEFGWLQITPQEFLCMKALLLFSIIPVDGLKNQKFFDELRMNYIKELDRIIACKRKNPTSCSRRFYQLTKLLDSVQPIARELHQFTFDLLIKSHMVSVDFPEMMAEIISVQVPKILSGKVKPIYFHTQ

[2] = system: Shionogi mouse mammary carcinoma cells; assay: Androgenic/antiandrogenic activity: inhibition of DHT-stimulated Shionogi cell number; type: cell-based; details: Mus musculus, read-out: Shionogi Antiandrogenic Activity IC50, Table 1; DHT-stimulated Shionogi cell number
[3] = read-out: Lev Ani % inhibition, Table 1, s.c. or p.o. (route not marked), levator ani
[4] = read-out: Prostate % inhibition, Table 1, s.c. or p.o. (route not marked in cell)
[5] = read-out: SV % inhibition, Table 1, s.c. or p.o. (route not marked), seminal vesicle

CCC(CC)NCc1ccc(OCCCN2C(=S)N(c3ccc(C#N)c(C(F)(F)F)c3)C(=O)C2(C)C)cc1 [EM-7144]
inhibition in vivo at 0.5 mg [1, 3]: 41% | inhibition in vivo at 0.5 mg [1, 4]: 45% | inhibition in vivo at 0.5 mg [1, 5]: 61% | Human Androgen Receptor Binding (%) RBA R1881 = 100 (Human Androgen Receptor): 14.0% | IC50 [2]: 22.5 nM

CCNCc1ccc(OCCCN2C(=S)N(c3ccc(C#N)c(C(F)(F)F)c3)C(=O)C2(C)C)cc1 [EM-7148]
inhibition in vivo at 0.5 mg [1, 3]: 75% | inhibition in vivo at 0.5 mg [1, 4]: 58% | inhibition in vivo at 0.5 mg [1, 5]: 85% | Human Androgen Receptor Binding (%) RBA R1881 = 100 (Human Androgen Receptor): 12.0% | IC50 [2]: 6.1 nM

CCC(=O)c1ccc(OCCCN2C(=S)N(c3ccc(C#N)c(C(F)(F)F)c3)C(=O)C2(C)C)cc1 [EM-7154]
inhibition in vivo at 0.5 mg [1, 3]: 6% | inhibition in vivo at 0.5 mg [1, 4]: 8% | inhibition in vivo at 0.5 mg [1, 5]: 31% | Human Androgen Receptor Binding (%) RBA R1881 = 100 (Human Androgen Receptor): 64.7% | IC50 [2]: 20 nM

CC(=O)c1ccc(OCCCN2C(=S)N(c3ccc(C#N)c(C(F)(F)F)c3)C(=O)C2(C)C)cc1 [EM-7168]
inhibition in vivo at 0.5 mg [1, 3]: 0% | inhibition in vivo at 0.5 mg [1, 4]: 14% | inhibition in vivo at 0.5 mg [1, 5]: 54% | Human Androgen Receptor Binding (%) RBA R1881 = 100 (Human Androgen Receptor): 49.3% | IC50 [2]: 13 nM

CC(NC1CC1)c1ccc(OCCCN2C(=S)N(c3ccc(C#N)c(C(F)(F)F)c3)C(=O)C2(C)C)cc1 (stereo not shown) [EM-7169]
inhibition in vivo at 0.5 mg [1, 3]: 31% | inhibition in vivo at 0.5 mg [1, 4]: 45% | inhibition in vivo at 0.5 mg [1, 5]: 72% | Human Androgen Receptor Binding (%) RBA R1881 = 100 (Human Androgen Receptor): 21.7% | IC50 [2]: 11 nM

CN(C)Cc1ccc(OCCCN2C(=S)N(c3ccc(C#N)c(C(F)(F)F)c3)C(=O)C2(C)C)cc1 [EM-7192]
inhibition in vivo at 0.5 mg [1, 3]: 0% | inhibition in vivo at 0.5 mg [1, 4]: 53% | inhibition in vivo at 0.5 mg [1, 5]: 75% | Human Androgen Receptor Binding (%) RBA R1881 = 100 (Human Androgen Receptor): 15.6% | IC50 [2]: 11.5 nM

CC(C)NC(=O)c1ccc(OCCCN2C(=S)N(c3ccc(C#N)c(C(F)(F)F)c3)C(=O)C2(C)C)cc1 [EM-7202]
inhibition in vivo at 0.5 mg [1, 3]: 0% | inhibition in vivo at 0.5 mg [1, 4]: 26% | inhibition in vivo at 0.5 mg [1, 5]: 63% | Human Androgen Receptor Binding (%) RBA R1881 = 100 (Human Androgen Receptor): 37.0% | IC50 [2]: 36.5 nM

CCC(NC(C)C)c1ccc(OCCCN2C(=S)N(c3ccc(C#N)c(C(F)(F)F)c3)C(=O)C2(C)C)cc1 (stereo not shown) [EM-7203]
inhibition in vivo at 0.5 mg [1, 3]: 4% | inhibition in vivo at 0.5 mg [1, 4]: 37% | inhibition in vivo at 0.5 mg [1, 5]: 66% | Human Androgen Receptor Binding (%) RBA R1881 = 100 (Human Androgen Receptor): 48.4% | IC50 [2]: 8.9 nM

CCC(C)NCc1ccc(OCCCN2C(=S)N(c3ccc(C#N)c(C(F)(F)F)c3)C(=O)C2(C)C)cc1 (stereo not shown) [EM-7225]
inhibition in vivo at 0.5 mg [1, 3]: 14% | inhibition in vivo at 0.5 mg [1, 4]: 52% | inhibition in vivo at 0.5 mg [1, 5]: 71% | Human Androgen Receptor Binding (%) RBA R1881 = 100 (Human Androgen Receptor): 15.3% | IC50 [2]: 12.5 nM

CCCNCc1ccc(OCCCN2C(=S)N(c3ccc(C#N)c(C(F)(F)F)c3)C(=O)C2(C)C)cc1 [EM-7227]
inhibition in vivo at 0.5 mg [1, 3]: 1% | inhibition in vivo at 0.5 mg [1, 4]: 35% | inhibition in vivo at 0.5 mg [1, 5]: 77% | Human Androgen Receptor Binding (%) RBA R1881 = 100 (Human Androgen Receptor): 18.0% | IC50 [2]: 10.8 nM

CC1(C)C(=O)N(c2ccc(C#N)c(C(F)(F)F)c2)C(=S)N1CCCOc1ccc(CN2CCCC2)cc1 [EM-7232, 4-{4,4-Dimethyl-5-oxo-3-[3-(4-pyrrolidin-1-ylmethyl-phenoxy)-]-2-thioxo-imidazolidin-1-yl}-2-trifluoro-benzonitrile]
inhibition in vivo at 0.5 mg [1, 3]: 70% | inhibition in vivo at 0.5 mg [1, 4]: 45% | inhibition in vivo at 0.5 mg [1, 5]: 84% | Human Androgen Receptor Binding (%) RBA R1881 = 100 (Human Androgen Receptor): 19.0% | IC50 [2]: 7.6 nM
